# Earlier results as cited in patent US20210030918A1, “COATING OF FIBERS WITH DIPEPTIDE NANOSTRUCTURES USING ULTRASONIC CAVITATION” (Ramot at Tel-Aviv University Ltd., priority 2019, published 2021).
structure (smiles),measurement,value
"COc1cc(/C=C/C(=O)CC(=O)/C=C/c2ccc(O)c(OC)c2)ccc1O [Curcumin, (1E,6E)-1,7-bis(4-hydroxy-3-methoxyphenyl)-1,6-heptadiene-3,5-dione]",aqueous solubility,poor
